Like-named read-outs stand apart in the source and are kept apart here.
Tested on: Mortierella elongata AG77
Assay: Carbon source utilisation in Biolog 96-well plates, formazan formation after tetrazolium addition
Assay type: cell-based
Settings: for Metabolized: Metabolized = more formazan formation than a control containing no carbon source, observed visually at 2 h, 24 h, 148 h; for Carbon sources that Mortierella elongata AG77 can metabolize: summary of Table 3
Experimental: Two 300 mL volumes of growth medium comprising 1 g/L KH2PO4, 1 g/L MgSO4 7H2O, 0.1 g/L CaCl2, 0.02 g/L FeNaEDTA, 0.1 g/L NaCl, and either 1 g/L NH4NO3 or 20 g/L sucrose were prepared. Acidity was adjusted to 5.5 using NaOH and volumes of growth medium were autoclaved 30 min at 121° C. to sterilize. Aliquots of 200 μL of carbon-free medium or nitrogen-free medium were pipetted into each well of a set of 96-well plates previously prepared with lyophilized putative carbon or nitrogen sources (Biolog Inc., Hayward, Calif.). Inocula were prepared by perforating a culture of Mortierella elongata AG77 grown on 20 g/L potato dextrose agar with a 3 mm diameter cork borer and separating the surface mycelial mat from the solid growth medium using tweezers. Each well was inoculated with one inoculum. Cultures were incubated at 21° C. for 24 hours to allow metabolic changes to stabilize, and then 100 μL of 3 g/L tetrazolium chloride in water was added to each well. Formazan formation was observed visually at 2 h, 24 h, and 148 h.
Conclusions were based on rate and intensity of formazan formation using the 3-4,5-dimethylthiazol-2-yl)-2,5-diphenyltetrazolium bromide (MTT) assay. “Metabolized” indicates more formazan formation than a control containing no carbon source, and “Toxic” indicates less formazan formation than a control containing no carbon source. “Metabolized” and “Toxic” assignments are mutually exclusive. In this example, a compound may be “Metabolized” or “Toxic,” but not both.

[1] = compound as carbon source, Toxic = less formazan formation than a control containing no carbon source

Compound	Metabolized (compound as carbon source)	Toxic [1]	Carbon sources that Mortierella elongata AG77 can metabolize	Toxic
CO[C@H]1O[C@H](CO)[C@@H](O)[C@H](O)[C@H]1O [a-Methyl-D-Glucoside]	yes	no	can metabolize	
CC(=O)C(=O)O [Pyruvic Acid]	no	no		
C[N+](C)(C)CC(O)CC(=O)[O-] (racemic) [D,L-Carnitine]	yes	no	can metabolize	
Mannan				no
CO[C@@H]1O[C@H](CO)[C@@H](O)[C@H](O)[C@H]1O [β-Methyl-D-Glucoside]	no	no		
OC[C@H]1O[C@H](O[C@H]2[C@H](O)[C@@H](O)[C@H](O)O[C@@H]2CO)[C@H](O)[C@@H](O)[C@@H]1O [Maltose]	yes		can metabolize	
C=C(CC(=O)O)C(=O)O [Itaconic Acid]	no	no		
CC(O)CC(=O)O (stereo not drawn) [β-Hydroxy Butyric Acid]	no			no
OC[C@@H](O)[C@H](O)[C@@H](O)CO [Xylitol]	no			no
O=C1O[C@H]([C@@H](O)CO)[C@@H](O)[C@@H]1O [L-Galactonic Acid-γ-Lactone]	yes	no	can metabolize	
Tween 40	no	no		
COC1OCC(O)C(O)C1O [β-Methyl-D-Xyloside]	no	no		
C/C(=C/C(=O)O)C(=O)O [Citraconic Acid]	no			no
CCC(=O)O [Propionic Acid]	no			no
Dextrin				no
CC(=O)N[C@H]1[C@@H](O)[C@H](O)[C@@H](CO)O[C@H]1O [N-Acetyl-β-D-Mannosamine]	yes	no	can metabolize	
N#C[C@H](O[C@@H]1O[C@H](CO[C@@H]2O[C@H](CO)[C@@H](O)[C@H](O)[C@H]2O)[C@@H](O)[C@H](O)[C@H]1O)c1ccccc1 [Amygdalin]	no	no		
OC[C@H]1O[C@@H](O[C@@H]2[C@@H](CO)OC(O)(CO)[C@H]2O)[C@H](O)[C@@H](O)[C@H]1O (mixture of isomers) [Lactulose]	no			no
O=C(O)CO [Glycolic Acid]	yes	no	can metabolize	
Nc1ncnc2c1ncn2C1CC(O)C(CO)O1 (centres unmarked) [2-Deoxy Adenosine]	no	no		
OC[C@H](O)C(O)[C@@H](O)CO [L-Arabitol]	no	no		
CC(O)(CC(=O)O)C(=O)O (centres unmarked) [Citramalic Acid]	no			no
CC(=O)C(C)O (centres unmarked) [3-Hydroxy 2-Butanone]	no	no		
O=C(O)CCC(=O)C(=O)O [α-Keto-Glutaric Acid]		no		
O=C(O)[C@@H](O)[C@H](O)[C@H](O)[C@@H](O)C(=O)O [Mucic Acid]	no			no
Maltotriose	yes	no	can metabolize	
O=C[C@H](O)[C@H](O)[C@@H](O)CO [L-Lyxose]	no			no
CC(=O)CC(=O)O [Acetoacetic Acid]	yes		can metabolize	no
O=C(O)C[C@H](O)C(=O)O [L-Malic Acid]	no	no		

Source: patent US20200325505A1, “FILAMENTOUS FUNGI CAPABLE OF PRODUCING VERY LONG CHAIN FATTY ACIDS” (UT-Battelle, LLC, priority 2019, published 2020)
